Experimental data from US10508120B2, “TYK2 inhibitors and uses thereof” (Nimbus Lakshmi, Inc., priority 2017, dated 2019).
One block for each molecule: values may come before it.

Columns and labels:
Tyk2 kinase domain (DH1) = Tyk2 kinase domain (DH1) (Homo sapiens (Human), UniProt P29597); assay: Tyk2 Radioactive Kinase Assay; assay type: biochemical; details: for inhibition at 10 µM: read-out: Tyk2 JH1% Inhibition @ 10 μM
Protocol: (§1) The Tyk2 and JAK2 radioactive kinase assay measures the percent inhibition at the Tyk2 kinase domain (DH1) and the percent inhibition at the JAK2 kinase domain (JH1). Results of the assay are expressed as percent inhibition at 10 μM.

JAK2 kinase domain (JH1) = JAK2 kinase domain (JH1) (Homo sapiens (Human), UniProt O60674); assay: JAK2 Radioactive Kinase Assay; assay type: biochemical; details: for inhibition at 10 µM: read-out: JAK2 JH1% Inhibition @ 10 μM
Protocol: as §1

[1] = molecular target: human TYK2 (JH2domain-pseudokinase) (Homo sapiens (Human), UniProt P29597); assay: TYK2 JH2 Domain Binding Assay (KINOMEscan)
Method in brief: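 Kds, run in duplicate, came from Hill fits (slope fixed at −1) of an 11-point 3-fold dilution series starting at 30,000 nM. Bead-retained TYK2 JH2 (aa G556–D888)–NFkB DBD fusion, DNA-tagged and expressed in HEK293 cells, was read by qPCR after 1 h room-temperature binding in 0.9% DMSO.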

Chain of Tyk2 kinase domain (DH1) (P29597 897-1176): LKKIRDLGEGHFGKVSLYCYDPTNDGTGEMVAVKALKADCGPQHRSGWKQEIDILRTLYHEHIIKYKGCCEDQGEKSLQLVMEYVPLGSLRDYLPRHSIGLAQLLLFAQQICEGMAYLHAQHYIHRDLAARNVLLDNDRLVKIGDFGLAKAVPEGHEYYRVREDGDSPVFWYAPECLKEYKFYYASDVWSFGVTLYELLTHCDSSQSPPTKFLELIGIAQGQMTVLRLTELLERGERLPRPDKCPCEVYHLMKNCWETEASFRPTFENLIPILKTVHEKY
Chain of human TYK2 (JH2domain-pseudokinase) (P29597 556-888): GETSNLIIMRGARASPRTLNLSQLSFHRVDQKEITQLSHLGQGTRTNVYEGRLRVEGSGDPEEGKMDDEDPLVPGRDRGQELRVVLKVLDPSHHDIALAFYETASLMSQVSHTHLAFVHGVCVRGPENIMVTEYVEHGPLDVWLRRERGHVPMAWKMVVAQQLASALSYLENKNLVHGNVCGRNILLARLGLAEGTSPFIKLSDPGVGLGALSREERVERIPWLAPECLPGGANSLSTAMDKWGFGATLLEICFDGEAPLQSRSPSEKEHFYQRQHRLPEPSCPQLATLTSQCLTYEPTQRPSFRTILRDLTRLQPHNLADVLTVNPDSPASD
Chain of JAK2 kinase domain (JH1) (O60674 849-1124): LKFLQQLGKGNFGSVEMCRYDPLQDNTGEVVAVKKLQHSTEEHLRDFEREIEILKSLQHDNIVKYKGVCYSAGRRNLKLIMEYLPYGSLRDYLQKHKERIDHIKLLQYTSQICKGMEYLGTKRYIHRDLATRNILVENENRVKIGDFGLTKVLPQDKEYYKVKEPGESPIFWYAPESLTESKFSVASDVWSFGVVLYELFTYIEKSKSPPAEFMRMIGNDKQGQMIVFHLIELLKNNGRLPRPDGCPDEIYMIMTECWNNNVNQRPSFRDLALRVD

SMILES: CNc1cc(Nc2cccn([C@H]3CC[C@H](OC)CC3)c2=O)nc2c(C(=O)N[C@H]3CC[C@@H]3O)cnn12 [I-636]
Tyk2 JH1% Inhibition @ 10 μM (Tyk2 kinase domain (DH1); compound at 10 μM, ATP 10 μM): A (percent inhibition at 10 μM lower than 50)
JAK2 JH1% Inhibition @ 10 μM (JAK2 kinase domain (JH1); compound at 10 μM, ATP 10 μM): A (percent inhibition at 10 μM lower than 50)

SMILES: CNc1cc(Nc2cccn([C@H]3CCC[C@@H](OC)C3)c2=O)nc2c(C(=O)N[C@@H]3C[C@@H]3F)cnn12 [I-839]
inhibition at 10 µM (Tyk2 kinase domain (DH1); 10 μM compound, 10 μM ATP): < 50%
inhibition at 10 µM (JAK2 kinase domain (JH1); 10 μM compound, 10 μM ATP): < 50%

SMILES: CNc1cc(Nc2cccn([C@@H]3CCCOC3)c2=O)nc2c(C(=O)N[C@@H]3CCC[C@@H](O)C3)cnn12 [I-780]
Tyk2 JH1% Inhibition @ 10 μM (Tyk2 kinase domain (DH1); compound at 10 μM, ATP 10 μM): A (percent inhibition at 10 μM lower than 50)
JAK2 JH1% Inhibition @ 10 μM (JAK2 kinase domain (JH1); compound at 10 μM, ATP 10 μM): A (percent inhibition at 10 μM lower than 50)

SMILES: CNc1cc(Nc2cccn([C@H]3CCCOC3)c2=O)nc2c(C(=O)N[C@H]3CC[C@H]3O)cnn12 [I-803]
Tyk2 JH1% Inhibition @ 10 μM (Tyk2 kinase domain (DH1); compound at 10 μM, ATP 10 μM): A (percent inhibition at 10 μM lower than 50)
JAK2 JH1% Inhibition @ 10 μM (JAK2 kinase domain (JH1); compound at 10 μM, ATP 10 μM): A (percent inhibition at 10 μM lower than 50)

SMILES: CNc1cc(Nc2cccn([C@H]3CCC[C@H](O)C3)c2=O)nc2c(C(=O)NC3CC3)cnn12 [I-821]
inhibition at 10 µM (Tyk2 kinase domain (DH1); 10 μM compound, 10 μM ATP): < 50%
inhibition at 10 µM (JAK2 kinase domain (JH1); 10 μM compound, 10 μM ATP): < 50%

SMILES: CNc1cc(Nc2cccn(C(C)C)c2=O)nc2c(C(=O)N[C@H]3CC[C@H]3O)cnn12 [I-977]
Tyk2 JH1% Inhibition @ 10 μM (Tyk2 kinase domain (DH1); 10 μM compound, 10 μM ATP): A (percent inhibition at 10 μM lower than 50)
JAK2 JH1% Inhibition @ 10 μM (JAK2 kinase domain (JH1); 10 μM compound, 10 μM ATP): A (percent inhibition at 10 μM lower than 50)

SMILES: CNc1cc(Nc2cccn(-c3cccnc3C)c2=O)nc2c(C(=O)N[C@H]3CC[C@@H]3OC)cnn12 [I-924]
JAK2 JH1% Inhibition @ 10 μM (JAK2 kinase domain (JH1); 10 μM compound, 10 μM ATP): A (percent inhibition at 10 μM lower than 50)

SMILES: CNc1cc(Nc2cccn([C@@H]3CCCOC3)c2=O)nc2c(C(=O)N[C@H]3COC[C@H]3O)cnn12 [I-786]
Tyk2 JH1% Inhibition @ 10 μM (Tyk2 kinase domain (DH1); compound at 10 μM, ATP 10 μM): A (percent inhibition at 10 μM lower than 50)
JAK2 JH1% Inhibition @ 10 μM (JAK2 kinase domain (JH1); compound at 10 μM, ATP 10 μM): A (percent inhibition at 10 μM lower than 50)

SMILES: CNc1cc(Nc2cccc([C@H]3CCCOC3)n2)nc2c(C(=O)N[C@H]3CC[C@@H]3O)cnn12 [I-666]
Tyk2 JH1% Inhibition @ 10 μM (Tyk2 kinase domain (DH1); compound at 10 μM, ATP 10 μM): A (percent inhibition at 10 μM lower than 50)
JAK2 JH1% Inhibition @ 10 μM (JAK2 kinase domain (JH1); compound at 10 μM, ATP 10 μM): A (percent inhibition at 10 μM lower than 50)

SMILES: CNc1cc(Nc2cc(Cl)cn(C3CCOCC3)c2=O)nc2c(C(=O)N[C@H]3CC[C@@H]3O)cnn12 [I-826]
inhibition at 10 µM (Tyk2 kinase domain (DH1); 10 μM compound, 10 μM ATP): < 50%
inhibition at 10 µM (JAK2 kinase domain (JH1); 10 μM compound, 10 μM ATP): < 50%

SMILES: CNc1cc(Nc2cccc(N3CCO[C@@]4(CCOC4)C3)n2)nc2c(C(=O)NC3CC3)cnn12 [I-828]
inhibition at 10 µM (Tyk2 kinase domain (DH1); 10 μM compound, 10 μM ATP): < 50%
inhibition at 10 µM (JAK2 kinase domain (JH1); 10 μM compound, 10 μM ATP): < 50%

SMILES: CNc1cc(Nc2cccn(-c3ccccc3F)c2=O)nc2c(C(=O)N[C@H]3CC[C@H]3O)cnn12 [I-939]
Tyk2 JH1% Inhibition @ 10 μM (Tyk2 kinase domain (DH1); 10 μM compound, 10 μM ATP): A (percent inhibition at 10 μM lower than 50)
JAK2 JH1% Inhibition @ 10 μM (JAK2 kinase domain (JH1); 10 μM compound, 10 μM ATP): A (percent inhibition at 10 μM lower than 50)

SMILES: CNc1cc(Nc2cccn([C@@H]3CC[C@H]3O)c2=O)nc2c(C(=O)NC3CC3)cnn12 [I-802]
Tyk2 JH1% Inhibition @ 10 μM (Tyk2 kinase domain (DH1); compound at 10 μM, ATP 10 μM): A (percent inhibition at 10 μM lower than 50)
JAK2 JH1% Inhibition @ 10 μM (JAK2 kinase domain (JH1); compound at 10 μM, ATP 10 μM): A (percent inhibition at 10 μM lower than 50)

SMILES: CNc1cc(Nc2cccn(C3CCN(CCF)CC3)c2=O)nc2c(C(=O)N[C@H]3CC[C@H]3O)cnn12 [I-896]
Tyk2 JH1% Inhibition @ 10 μM (Tyk2 kinase domain (DH1); 10 μM compound, 10 μM ATP): A (percent inhibition at 10 μM lower than 50)
JAK2 JH1% Inhibition @ 10 μM (JAK2 kinase domain (JH1); 10 μM compound, 10 μM ATP): A (percent inhibition at 10 μM lower than 50)

The next lines start with the values.

inhibition at 10 µM (Tyk2 kinase domain (DH1); 10 μM compound, 10 μM ATP): < 50%
inhibition at 10 µM (JAK2 kinase domain (JH1); 10 μM compound, 10 μM ATP): < 50%
SMILES: CNc1cc(Nc2cccn([C@@H]3C[C@H]3F)c2=O)nc2c(C(=O)NC3CC3)cnn12 [I-866]

inhibition at 10 µM (Tyk2 kinase domain (DH1); 10 μM compound, 10 μM ATP): < 50%
inhibition at 10 µM (JAK2 kinase domain (JH1); 10 μM compound, 10 μM ATP): < 50%
SMILES: CNc1cc(Nc2cccn(-c3cccc(F)c3)c2=O)nc2c(C(=O)N[C@H]3CC[C@H]3O)cnn12 [I-945]

inhibition at 10 µM (Tyk2 kinase domain (DH1); 10 μM compound, 10 μM ATP): < 50%
inhibition at 10 µM (JAK2 kinase domain (JH1); 10 μM compound, 10 μM ATP): < 50%
SMILES: CNc1cc(Nc2cccc(N3CCCC3=O)n2)nc2c(C(=O)N[C@@H]3CC[C@@H]3O)cnn12 [I-970]

inhibition at 10 µM (Tyk2 kinase domain (DH1); 10 μM compound, 10 μM ATP): < 50%
inhibition at 10 µM (JAK2 kinase domain (JH1); 10 μM compound, 10 μM ATP): < 50%
SMILES: CNc1cc(Nc2cccn(C3CC4(COC4)C3)c2=O)nc2c(C(=O)N[C@H]3CC[C@H]3O)cnn12 [I-870]

inhibition at 10 µM (JAK2 kinase domain (JH1); 10 μM compound, 10 μM ATP): < 50%
SMILES: CNc1cc(Nc2cccn(-c3cccnc3C)c2=O)nc2c(C(=O)N[C@@H]3CC[C@H]3OC)cnn12 [I-925]

inhibition at 10 µM (JAK2 kinase domain (JH1); 10 μM compound, 10 μM ATP): < 50%
SMILES: CNc1cc(Nc2cccn(-c3cccnc3C)c2=O)nc2c(C(=O)N[C@H]3CC[C@@H]3OC)cnn12 [I-865]

inhibition at 10 µM (JAK2 kinase domain (JH1); 10 μM compound, 10 μM ATP): < 50%
SMILES: CNc1cc(Nc2cccn(-c3cncc(F)c3)c2=O)nc2c(C(=O)N[C@H]3CC[C@@H]3OC)cnn12 [I-1084]

inhibition at 10 µM (JAK2 kinase domain (JH1); 10 μM compound, 10 μM ATP): < 50%
SMILES: CNc1cc(Nc2cccn(-c3cncc(F)c3)c2=O)nc2c(C(=O)N[C@@H]3CC[C@H]3OC)cnn12 [I-1085]

inhibition at 10 µM (JAK2 kinase domain (JH1); 10 μM compound, 10 μM ATP): < 50%
SMILES: CNc1cc(Nc2cccn([C@@H]3CCCOC3)c2=O)nc2c(C(=O)N[C@H]3CC[C@@H]3OC)cnn12 [I-903, N-((1S,2S)-2-methoxycyclobutyl)-7-(methylamino)-5-((2-oxo-1-((R)-tetrahydro-2H-pyran-3-yl)-1,2-dihydropyridin-3-yl)amino)pyrazolo[1,5-a]pyrimidine-3-carboxamide]

Kd [1]: 0.2 to 1 nM
SMILES: CNc1cc(Nc2cccn([C@H]3C[C@@H]3F)c2=O)nc2c(C(=O)N[C@H]3CC[C@@H]3O)cnn12 [I-1278]

Kd [1]: < 0.2 nM
SMILES: CNc1cc(Nc2cccn([C@H]3CC[C@H]3O)c2=O)nc2c(C(=O)N[C@H]3CC[C@@H]3OC)cnn12 [I-1410]

Kd [1]: 1 to 10 nM
SMILES: CNc1cc(Nc2cccn3ccnc23)nc2c(C(=O)N[C@H]3COC[C@H]3O)cnn12 [I-1262]
